{"source": "paper PMC11432405", "about": "“Development of Novel Alaninamide Derivatives with Anticonvulsant Activity and Favorable Safety Profiles in Animal Models” (International Journal of Molecular Sciences, 2024)", "key": {"[1]": {"test_system": "Cav1.2 (L-type) (diltiazem site)", "assay": "radioligand binding Cav1.2 (L-type) diltiazem site", "conditions": "100 µM, rat cerebral cortex", "experimental": "(§1) Binding/functional studies were performed commercially in Cerep Laboratories (Poitiers, France) using testing procedures described elsewhere. The general information is listed in Table S3 in the Supporting Information.\n(§2) Table S3. The general information of radioligand binding/functional assays. […]\nCa2+channel (L, diltiazem site) (antagonist radioligand) […]\n(§3) Assays were performed commercially in Eurofins Cerep SA (Celle l’Evescault, France) and Eurofins\n(§4) Panlabs Discovery Services Taiwan, Ltd. (New Taipei City, Taiwan), using procedures describe"}, "Potassium channel (hERG)": {"target": "T1, Potassium channel (hERG) (Homo sapiens, UniProt Q12809)", "T1 construct": "Cerep Laboratories / Eurofins (contract assay)", "assay": "radioligand binding potassium channel (hERG)", "conditions": "100 µM, human recombinant HEK-293 cell", "experimental": "as §1, §2\n(§5) Potassium channel (hERG) […]\nas §3, §4"}, "hERG potassium channel": {"target": "T2, hERG potassium channel (Homo sapiens, UniProt Q12809)", "T2 construct": "Cerep Laboratories / Eurofins (contract assay)", "T2 sequence (Q12809 whole entry)": "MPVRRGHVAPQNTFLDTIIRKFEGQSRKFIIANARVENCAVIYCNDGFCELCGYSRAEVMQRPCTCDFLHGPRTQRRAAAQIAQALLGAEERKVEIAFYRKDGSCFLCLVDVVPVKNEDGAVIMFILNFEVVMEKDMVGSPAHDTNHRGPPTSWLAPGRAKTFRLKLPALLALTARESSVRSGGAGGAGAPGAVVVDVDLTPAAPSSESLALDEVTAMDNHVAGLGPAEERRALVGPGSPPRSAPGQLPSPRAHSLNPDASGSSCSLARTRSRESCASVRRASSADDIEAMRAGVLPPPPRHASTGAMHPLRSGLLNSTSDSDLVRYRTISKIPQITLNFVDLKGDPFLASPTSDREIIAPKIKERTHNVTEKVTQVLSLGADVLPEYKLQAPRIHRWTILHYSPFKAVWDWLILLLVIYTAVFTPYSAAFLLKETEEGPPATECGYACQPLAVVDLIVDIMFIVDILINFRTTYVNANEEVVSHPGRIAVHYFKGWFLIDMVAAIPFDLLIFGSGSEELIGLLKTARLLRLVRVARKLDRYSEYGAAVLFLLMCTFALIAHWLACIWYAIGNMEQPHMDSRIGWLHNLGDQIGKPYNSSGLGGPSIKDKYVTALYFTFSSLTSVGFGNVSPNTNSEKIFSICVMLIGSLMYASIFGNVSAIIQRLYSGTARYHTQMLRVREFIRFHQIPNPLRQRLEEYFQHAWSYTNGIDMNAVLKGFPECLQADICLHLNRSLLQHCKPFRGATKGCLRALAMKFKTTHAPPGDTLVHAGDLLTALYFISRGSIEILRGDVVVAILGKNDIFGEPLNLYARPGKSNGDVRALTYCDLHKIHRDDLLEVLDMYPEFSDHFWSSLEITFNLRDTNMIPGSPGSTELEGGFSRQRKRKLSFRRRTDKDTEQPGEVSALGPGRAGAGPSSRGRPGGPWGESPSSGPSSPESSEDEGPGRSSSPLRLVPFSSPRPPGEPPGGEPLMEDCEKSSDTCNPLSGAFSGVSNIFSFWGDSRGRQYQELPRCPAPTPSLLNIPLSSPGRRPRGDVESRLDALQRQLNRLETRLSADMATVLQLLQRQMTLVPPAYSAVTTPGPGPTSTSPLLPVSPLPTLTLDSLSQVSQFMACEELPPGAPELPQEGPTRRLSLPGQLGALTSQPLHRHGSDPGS", "assay": "radioligand binding potassium channel (hERG)", "conditions": "HEK-293 cells expressing human recombinant hERG, human recombinant HEK-293 cell, read-out: % Inhibition of Control Specific Binding", "experimental": "as §1, §2, §5, §3, §4"}, "SH-SY5Y cells": {"test_system": "SH-SY5Y cells", "assay": "neurocytotoxicity MTT viability assay", "type": "cell-based, human", "conditions": "1–50 µM, 24 h", "experimental": "To evaluate selected compounds’ hepatocytotoxicity and neurocytotoxicity, a human hepatocellular carcinoma cell line, HepG2 (ATCC® HB-8065™), and a human neuroblastoma cell line, SH-SY5Y (ATCC®, CRL-2266™), were used. Both cell lines were cultured in standard culture conditions (5% CO2, 37 °C, 95% humidity) using Dulbecco′s Modified Eagle′s—Medium (DMEM; Gibco, Thermo Scientific, Waltham, MA, USA) supplemented with 10% (vol/vol) fetal bovine serum (FBS; Gibco, Thermo Scientific, Waltham, MA, USA) and an antibiotic mixture (Penicillin, Streptomycin, Amphotericin B; Gibco, Thermo Scientific, Waltham, MA, USA). Cells were cultured with compounds 5, […], or 39 (1–50 µM) for 24 h and then an MTT (3-(4,5-dimethylthiazol-2-yl)-2,5diphenyltetrazolium bromide, Sigma-Aldrich, St. Louis, MO, USA) viability assay was performed. The formazan crystals were dissolved in DMSO (Sigma-Aldrich, St. Louis, MO, USA), and the absorbance at 570 nm was measured using a microplate reader (SpectraMax® iD3, Molecular Devices, San Jose, CA, USA). The experiment was performed three times in duplicate. Each bar represents the mean (±SEM) percentage of viable cells in comparison to the control (defined as 100% and represented by untreated cells).\nFigure 3 The viability of SH-SY5Y cells incubated in the presence of compounds 5, 17, and 39. […] Cell viability was measured using an MTT assay. […]"}, "[2]": {"assay": "rotarod test (acute neurological toxicity, motor coordination)", "type": "in vivo", "conditions": "male, CD-1 (albino Swiss), mouse, in vivo, ip, mice i.p.", "protocol": "The protective indexes (PIs) were then calculated as the ratio of TD50 to ED50 (PI = TD50/ED50), providing an assessment of the therapeutic window for each compound.\nEach group consisted of six animals."}, "GlyT1": {"target": "T3, GlyT1 (Rattus norvegicus, UniProt P28572)", "T3 construct": "Cerep Laboratories / Eurofins (contract assay)", "T3 sequence (P28572 1-638)": "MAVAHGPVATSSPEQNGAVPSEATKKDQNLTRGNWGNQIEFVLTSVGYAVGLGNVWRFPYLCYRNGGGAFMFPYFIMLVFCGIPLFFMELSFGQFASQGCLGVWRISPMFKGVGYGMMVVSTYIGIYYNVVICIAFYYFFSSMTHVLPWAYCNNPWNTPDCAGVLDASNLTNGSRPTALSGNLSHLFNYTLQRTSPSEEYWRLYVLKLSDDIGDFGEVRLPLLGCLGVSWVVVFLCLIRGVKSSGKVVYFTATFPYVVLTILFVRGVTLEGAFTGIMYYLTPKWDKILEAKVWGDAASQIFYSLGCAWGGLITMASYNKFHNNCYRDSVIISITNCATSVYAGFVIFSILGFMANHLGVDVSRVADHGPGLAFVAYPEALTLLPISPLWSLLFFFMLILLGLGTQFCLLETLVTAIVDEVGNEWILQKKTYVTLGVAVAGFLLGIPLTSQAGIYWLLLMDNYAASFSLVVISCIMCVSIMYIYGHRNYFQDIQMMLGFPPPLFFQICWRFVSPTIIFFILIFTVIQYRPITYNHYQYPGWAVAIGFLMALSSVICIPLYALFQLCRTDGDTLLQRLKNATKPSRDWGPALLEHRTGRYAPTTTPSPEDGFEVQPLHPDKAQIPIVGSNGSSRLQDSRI", "assay": "radioligand binding GlyT1", "conditions": "rat cerebral cortex", "experimental": "as §1, §2\nGLYT1 (glycine transporter binding) (antagonist radioligand) […]\nas §3, §4"}, "human recombinant MAO-B": {"target": "T4, human recombinant MAO-B (Homo sapiens, UniProt P27338)", "T4 construct": "purchased Sigma Aldrich", "T4 sequence (P27338 1-520)": "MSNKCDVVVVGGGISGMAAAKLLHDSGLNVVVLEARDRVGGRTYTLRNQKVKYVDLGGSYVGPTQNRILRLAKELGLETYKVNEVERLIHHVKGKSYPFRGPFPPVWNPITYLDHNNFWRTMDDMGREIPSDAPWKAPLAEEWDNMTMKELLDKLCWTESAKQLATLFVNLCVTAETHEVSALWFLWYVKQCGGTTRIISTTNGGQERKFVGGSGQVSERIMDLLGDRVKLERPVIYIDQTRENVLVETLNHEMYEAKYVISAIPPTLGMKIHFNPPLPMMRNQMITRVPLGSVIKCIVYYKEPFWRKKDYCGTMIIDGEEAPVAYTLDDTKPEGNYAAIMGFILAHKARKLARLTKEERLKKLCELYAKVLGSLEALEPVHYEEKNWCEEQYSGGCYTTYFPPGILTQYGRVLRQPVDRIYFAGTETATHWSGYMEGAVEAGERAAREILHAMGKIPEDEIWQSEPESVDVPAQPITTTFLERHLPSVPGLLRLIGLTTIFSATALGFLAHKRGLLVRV", "assay": "fluorometric monoamine oxidase B inhibition assay", "type": "biochemical", "conditions": "read-out: % inhibition MAO-B (1 µM), mean of two independent experiments"}, "Na+ channel (site 2)": {"test_system": "Na+ channel (site 2)", "assay": "radioligand binding Na+ channel (site 2)", "conditions": "100 µM, rat cerebral cortex", "experimental": "as §1, §2, §3, §4"}, "[3]": {"target": "T5, Cav1.2 (h) calcium ion channel (Homo sapiens, UniProt Q13936)", "T5 construct": "Eurofins Cerep SA / Eurofins Panlabs Discovery Services Taiwan (contract assay)", "T5 sequence (Q13936 whole entry)": "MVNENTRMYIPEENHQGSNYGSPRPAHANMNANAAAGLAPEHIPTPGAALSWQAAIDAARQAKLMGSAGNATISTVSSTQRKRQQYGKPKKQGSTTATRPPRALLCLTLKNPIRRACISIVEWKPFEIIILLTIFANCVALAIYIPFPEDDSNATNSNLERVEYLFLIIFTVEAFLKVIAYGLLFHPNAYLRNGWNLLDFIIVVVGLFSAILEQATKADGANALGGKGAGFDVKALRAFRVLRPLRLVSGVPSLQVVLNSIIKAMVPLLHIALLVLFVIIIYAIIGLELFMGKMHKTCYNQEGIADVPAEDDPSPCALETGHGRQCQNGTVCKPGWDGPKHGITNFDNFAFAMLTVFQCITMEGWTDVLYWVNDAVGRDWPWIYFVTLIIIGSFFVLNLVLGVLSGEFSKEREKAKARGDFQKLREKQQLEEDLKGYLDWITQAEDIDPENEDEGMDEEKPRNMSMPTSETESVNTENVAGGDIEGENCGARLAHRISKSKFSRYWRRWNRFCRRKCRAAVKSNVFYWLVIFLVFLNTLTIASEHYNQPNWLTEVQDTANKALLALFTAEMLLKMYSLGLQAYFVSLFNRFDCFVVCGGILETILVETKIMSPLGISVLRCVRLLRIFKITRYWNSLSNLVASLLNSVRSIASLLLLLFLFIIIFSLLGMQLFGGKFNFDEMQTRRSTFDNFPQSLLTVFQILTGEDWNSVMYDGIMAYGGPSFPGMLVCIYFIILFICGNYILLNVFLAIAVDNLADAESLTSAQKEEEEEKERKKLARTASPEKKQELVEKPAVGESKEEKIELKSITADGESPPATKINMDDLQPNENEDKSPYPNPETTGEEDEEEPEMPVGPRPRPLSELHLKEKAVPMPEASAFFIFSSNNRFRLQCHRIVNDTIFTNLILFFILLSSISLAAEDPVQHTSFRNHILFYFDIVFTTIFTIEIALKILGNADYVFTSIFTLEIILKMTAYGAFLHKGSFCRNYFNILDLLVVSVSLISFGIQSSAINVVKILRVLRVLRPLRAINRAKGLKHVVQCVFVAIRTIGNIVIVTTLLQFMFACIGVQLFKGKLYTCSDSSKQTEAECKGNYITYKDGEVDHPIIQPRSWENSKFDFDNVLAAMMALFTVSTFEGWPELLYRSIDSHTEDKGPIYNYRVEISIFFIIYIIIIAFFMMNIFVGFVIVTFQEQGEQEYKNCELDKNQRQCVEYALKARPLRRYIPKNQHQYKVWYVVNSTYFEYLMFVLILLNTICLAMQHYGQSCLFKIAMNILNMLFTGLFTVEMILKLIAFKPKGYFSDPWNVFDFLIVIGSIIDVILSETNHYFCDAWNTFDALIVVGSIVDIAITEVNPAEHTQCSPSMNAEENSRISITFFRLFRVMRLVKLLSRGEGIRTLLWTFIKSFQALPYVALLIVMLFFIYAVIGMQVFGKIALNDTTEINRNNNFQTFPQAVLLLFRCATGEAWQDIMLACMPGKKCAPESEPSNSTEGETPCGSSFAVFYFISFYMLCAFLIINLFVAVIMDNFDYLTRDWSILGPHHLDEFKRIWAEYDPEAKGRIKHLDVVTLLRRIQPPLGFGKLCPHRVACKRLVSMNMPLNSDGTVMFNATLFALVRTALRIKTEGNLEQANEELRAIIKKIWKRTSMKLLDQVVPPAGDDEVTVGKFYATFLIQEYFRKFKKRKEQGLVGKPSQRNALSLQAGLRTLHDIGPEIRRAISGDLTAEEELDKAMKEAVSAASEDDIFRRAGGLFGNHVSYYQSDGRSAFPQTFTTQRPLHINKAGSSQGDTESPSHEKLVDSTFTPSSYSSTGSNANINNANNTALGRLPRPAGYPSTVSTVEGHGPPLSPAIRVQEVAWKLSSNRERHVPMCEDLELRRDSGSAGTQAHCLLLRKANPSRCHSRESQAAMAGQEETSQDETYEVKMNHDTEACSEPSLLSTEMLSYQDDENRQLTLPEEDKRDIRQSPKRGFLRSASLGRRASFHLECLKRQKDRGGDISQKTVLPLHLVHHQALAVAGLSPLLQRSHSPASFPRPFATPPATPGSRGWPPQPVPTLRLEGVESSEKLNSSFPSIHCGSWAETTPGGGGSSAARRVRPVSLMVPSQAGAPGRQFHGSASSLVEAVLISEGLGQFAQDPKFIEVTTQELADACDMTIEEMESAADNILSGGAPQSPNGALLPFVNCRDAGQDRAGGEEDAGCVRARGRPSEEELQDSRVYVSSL", "T5 sequence (Q08289 whole entry partner)": "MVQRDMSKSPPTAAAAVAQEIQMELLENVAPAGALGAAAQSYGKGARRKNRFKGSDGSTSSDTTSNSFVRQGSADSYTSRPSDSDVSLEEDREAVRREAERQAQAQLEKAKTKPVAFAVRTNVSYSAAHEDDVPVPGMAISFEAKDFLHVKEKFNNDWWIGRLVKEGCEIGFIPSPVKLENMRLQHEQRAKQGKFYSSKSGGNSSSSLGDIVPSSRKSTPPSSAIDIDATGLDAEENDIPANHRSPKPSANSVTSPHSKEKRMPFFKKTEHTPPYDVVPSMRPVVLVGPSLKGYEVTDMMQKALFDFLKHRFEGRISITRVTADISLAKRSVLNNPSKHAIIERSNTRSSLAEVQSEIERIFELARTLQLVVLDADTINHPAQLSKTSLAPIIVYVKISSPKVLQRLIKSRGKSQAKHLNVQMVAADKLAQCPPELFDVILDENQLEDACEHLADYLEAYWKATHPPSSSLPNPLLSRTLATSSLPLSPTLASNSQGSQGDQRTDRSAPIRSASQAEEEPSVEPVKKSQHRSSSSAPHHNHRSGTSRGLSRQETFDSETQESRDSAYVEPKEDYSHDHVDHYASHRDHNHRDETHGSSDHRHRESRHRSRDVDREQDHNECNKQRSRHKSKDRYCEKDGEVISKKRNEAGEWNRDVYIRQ", "T5 sequence (P54289 25-1103 partner)": "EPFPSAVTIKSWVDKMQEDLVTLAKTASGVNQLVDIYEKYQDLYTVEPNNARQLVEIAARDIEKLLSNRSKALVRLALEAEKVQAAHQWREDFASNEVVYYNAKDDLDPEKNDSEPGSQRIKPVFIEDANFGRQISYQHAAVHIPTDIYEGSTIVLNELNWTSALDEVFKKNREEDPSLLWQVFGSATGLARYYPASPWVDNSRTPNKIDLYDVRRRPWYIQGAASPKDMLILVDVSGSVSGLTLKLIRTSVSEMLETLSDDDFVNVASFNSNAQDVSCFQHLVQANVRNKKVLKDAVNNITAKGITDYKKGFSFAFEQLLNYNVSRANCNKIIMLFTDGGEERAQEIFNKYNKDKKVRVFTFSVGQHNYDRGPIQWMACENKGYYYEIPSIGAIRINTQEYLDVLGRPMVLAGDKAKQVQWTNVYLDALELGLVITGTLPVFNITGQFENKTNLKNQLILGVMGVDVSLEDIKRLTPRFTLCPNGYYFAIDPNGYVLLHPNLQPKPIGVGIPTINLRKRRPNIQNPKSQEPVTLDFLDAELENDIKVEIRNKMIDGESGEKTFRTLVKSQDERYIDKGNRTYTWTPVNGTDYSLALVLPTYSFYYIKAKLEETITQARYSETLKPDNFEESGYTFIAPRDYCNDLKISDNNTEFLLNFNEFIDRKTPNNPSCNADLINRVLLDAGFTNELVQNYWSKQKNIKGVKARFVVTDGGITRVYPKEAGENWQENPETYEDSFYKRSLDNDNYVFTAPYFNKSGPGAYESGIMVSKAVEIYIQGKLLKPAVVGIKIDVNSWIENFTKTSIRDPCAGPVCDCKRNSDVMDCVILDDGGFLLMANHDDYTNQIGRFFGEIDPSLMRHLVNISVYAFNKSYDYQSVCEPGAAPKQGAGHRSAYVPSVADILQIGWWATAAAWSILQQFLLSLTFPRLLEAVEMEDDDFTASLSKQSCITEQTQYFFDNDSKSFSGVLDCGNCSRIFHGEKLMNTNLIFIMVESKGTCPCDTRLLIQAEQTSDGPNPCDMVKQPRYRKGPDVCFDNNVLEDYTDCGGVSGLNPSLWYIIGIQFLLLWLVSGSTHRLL", "assay": "Cav1.2 (h) calcium ion channel cell-based antagonist calcium flux assay", "experimental": "as §1, §2\nCav1.2 (L-type) (h) calcium ion channel cell based antagonist calcium flux assay\nas §3, §4"}}, "note": "Where two headings read alike, the source gives them in different places.", "data": [{"molecule": "CC(C(=O)NCc1ccc(OCc2ccccc2)cc1)N1C(=O)CCC1=O", "note": "(stereo not drawn) [Compound 5, N-(4-(benzyloxy)benzyl)-2-(2,5-dioxopyrrolidin-1-yl)propanamide]", "values": [{"measurement": "% Inhibition of Control Specific Binding", "setting": "[1]", "value": "68.5 (100) %"}, {"measurement": "melting point", "value": "102.9 to 103.4", "unit": "°C"}, {"measurement": "% Inhibition of Control Specific Binding", "setting": "Potassium channel (hERG)", "value": "did not bind"}, {"measurement": "inhibition at 100 µM", "setting": "hERG potassium channel", "value": 4.5, "unit": "%"}, {"measurement": "toxic effect on SH-SY5Y cell viability (MTT)", "setting": "SH-SY5Y cells", "value": "do not exhibit toxic effects"}, {"measurement": "TD50 at 0.5 h", "setting": "[2]", "value": "> 300", "unit": "mg/kg"}, {"measurement": "% Inhibition of Control Specific Binding", "setting": "GlyT1; 100 µM", "value": "no significant interaction"}, {"measurement": "inhibition at 100 µM", "setting": "GlyT1; read-out: % Inhibition of Control Specific Binding", "value": 23, "unit": "%"}, {"measurement": "inhibition at 1 µM", "setting": "human recombinant MAO-B", "value": 0, "unit": "%"}, {"measurement": "% Inhibition of Control Specific Binding", "setting": "Na+ channel (site 2)", "value": "38.2 (100) %"}, {"measurement": "inhibition at 100 µM", "setting": "[3]; HEK293, human recombinant HEK-293 cell, read-out: % Inhibition of Control Agonist Response", "value": 85, "unit": "%"}, {"measurement": "inhibition at 100 µM", "setting": "[3]; read-out: inhibition rate of the Cav1.2 (L-type) calcium channel (text summary of binding and functional assays)", "value": "> 50", "unit": "%"}]}]}
